Laboratory results reported in patent publication US7829587B2, “Substituted 2-aminotetralin derivatives as selective alpha 2B agonist” (Allergan, Inc., priority 2008, dated 2010).

Experiments:
Assay type in all cases: cell-based
[1] = biological target: T1, mouse α2B receptor (Mus musculus, UniProt P30545); test: FLIPR Ca+2 influx assay, α2B
T1 construct: expressed in transfected cells; host or cells: HEK 293
T1 sequence (P30545 1-453): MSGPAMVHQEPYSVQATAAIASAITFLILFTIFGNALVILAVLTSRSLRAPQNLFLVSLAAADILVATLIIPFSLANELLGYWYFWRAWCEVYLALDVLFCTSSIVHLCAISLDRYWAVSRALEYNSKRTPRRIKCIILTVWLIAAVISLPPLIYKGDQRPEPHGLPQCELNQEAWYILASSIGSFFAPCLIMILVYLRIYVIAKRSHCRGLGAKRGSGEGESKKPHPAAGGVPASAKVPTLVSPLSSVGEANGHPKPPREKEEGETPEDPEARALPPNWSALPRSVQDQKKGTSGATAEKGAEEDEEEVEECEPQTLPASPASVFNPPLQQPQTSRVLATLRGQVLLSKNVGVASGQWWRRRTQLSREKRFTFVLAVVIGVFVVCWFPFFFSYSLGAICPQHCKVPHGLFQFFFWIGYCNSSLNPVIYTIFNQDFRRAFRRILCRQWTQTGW
Procedure: (§1) The compounds disclosed herein are agonists of alpha 2B/2C adrenergic receptors. […] This assay is adequate for monitoring the intracellular Ca^2+ mobilization from fluorescent reading to evaluate receptor agonists.
(§2) FLIPR Ca+2 Influx Assay: HEK 293 cells stably expressing the bovine α1A receptor, the rat α1B receptor, the human α2A receptor and the chimeric G protein Gqi5, the human α2C receptor and the chimeric G protein Gqi5 and the mouse α2B receptor and the Gα16 protein were plated in poly-D-lysine coated 384 well plates at 15,000-25,000 cells per well and grown overnight in DMEM supplemented with 10% fetal bovine serum. For FLIPR (fluorometric image plate reader) evaluation, cells were washed 2-4 times with HBSS/HEPES Buffer (1× Hanks Buffered Salt Solution, 20 mM HEPES<pH 7.4) prior to the addition of Fluo-4-AM (4 uM Fluo-4-AM, 0.04% pluronic acid in HBSS/HEPES Buffer), a calcium-sensitive dye. Cells were loaded with Dye for 40 minutes at 30° C., then washed 4-8 times with HBSS/HEPES Buffer to remove excess dye. Cells were preincubated at 37° C. for 3 minutes prior to placement into the FLIPR instrument. The reaction was carried out at 37° C. and was initiated by the addition of the appropriate dilutions of compounds. The transient calcium was captured and the peak height of the calcium curve determined and utilized for calculation of EC50 and efficacy using ActivityBase. Data is stored in the ActivityBase database under the unique identifier “Test Occasion”, which reflects the results of an assay run on a particular date and the individual responsible for the assay. Norepinephrine was the standard full agonist for evaluating alpha1 and alpha2 receptor activity.

[2] = biological target: T2, human α2C receptor (Homo sapiens, UniProt P18825); test: FLIPR Ca+2 influx assay, α2C
T2 construct: expressed in transfected cells; host or cells: HEK 293
T2 sequence (P18825 1-462): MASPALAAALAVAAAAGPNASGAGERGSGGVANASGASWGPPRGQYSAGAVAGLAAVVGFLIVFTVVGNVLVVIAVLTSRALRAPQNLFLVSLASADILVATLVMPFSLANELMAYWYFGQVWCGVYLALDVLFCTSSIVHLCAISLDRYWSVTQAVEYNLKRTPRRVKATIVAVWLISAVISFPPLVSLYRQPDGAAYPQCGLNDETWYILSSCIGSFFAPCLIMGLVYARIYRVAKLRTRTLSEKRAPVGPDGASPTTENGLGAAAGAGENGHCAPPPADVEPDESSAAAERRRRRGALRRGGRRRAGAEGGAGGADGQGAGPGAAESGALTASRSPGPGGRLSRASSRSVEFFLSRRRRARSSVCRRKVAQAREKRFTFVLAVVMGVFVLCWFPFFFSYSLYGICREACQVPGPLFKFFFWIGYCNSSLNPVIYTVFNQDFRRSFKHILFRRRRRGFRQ
Procedure: as §1, §2

[3] = biological target: T3, rat α1B receptor (Rattus norvegicus, UniProt P15823); test: FLIPR Ca+2 influx assay, α1B; conditions: relative efficacy compared to standard full agonist norepinephrine; HEK 293, rat α1B
T3 construct: expressed in transfected cells; host or cells: HEK 293
T3 sequence (P15823 1-515): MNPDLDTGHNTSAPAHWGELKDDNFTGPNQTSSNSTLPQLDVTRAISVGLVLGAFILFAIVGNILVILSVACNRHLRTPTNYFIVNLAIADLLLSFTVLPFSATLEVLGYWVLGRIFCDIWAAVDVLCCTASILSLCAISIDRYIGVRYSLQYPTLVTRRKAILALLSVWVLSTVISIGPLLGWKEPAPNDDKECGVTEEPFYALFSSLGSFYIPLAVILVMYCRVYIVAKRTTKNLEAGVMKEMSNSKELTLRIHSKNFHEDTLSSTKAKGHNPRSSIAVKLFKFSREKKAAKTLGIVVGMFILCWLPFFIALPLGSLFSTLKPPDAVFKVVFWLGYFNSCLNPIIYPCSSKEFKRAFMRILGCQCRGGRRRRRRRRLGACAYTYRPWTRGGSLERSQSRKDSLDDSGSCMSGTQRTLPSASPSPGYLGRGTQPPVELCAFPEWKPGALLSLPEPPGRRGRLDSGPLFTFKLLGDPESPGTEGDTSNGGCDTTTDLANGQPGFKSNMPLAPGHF
Procedure: as §1, §2

[4] = biological target: T4, bovine α1A receptor (Bos taurus, UniProt P18130); test: FLIPR Ca+2 influx assay, α1A; conditions: relative efficacy compared to standard full agonist norepinephrine; HEK 293, bovine α1A
T4 construct: expressed in transfected cells; host or cells: HEK 293
T4 sequence (P18130 1-466): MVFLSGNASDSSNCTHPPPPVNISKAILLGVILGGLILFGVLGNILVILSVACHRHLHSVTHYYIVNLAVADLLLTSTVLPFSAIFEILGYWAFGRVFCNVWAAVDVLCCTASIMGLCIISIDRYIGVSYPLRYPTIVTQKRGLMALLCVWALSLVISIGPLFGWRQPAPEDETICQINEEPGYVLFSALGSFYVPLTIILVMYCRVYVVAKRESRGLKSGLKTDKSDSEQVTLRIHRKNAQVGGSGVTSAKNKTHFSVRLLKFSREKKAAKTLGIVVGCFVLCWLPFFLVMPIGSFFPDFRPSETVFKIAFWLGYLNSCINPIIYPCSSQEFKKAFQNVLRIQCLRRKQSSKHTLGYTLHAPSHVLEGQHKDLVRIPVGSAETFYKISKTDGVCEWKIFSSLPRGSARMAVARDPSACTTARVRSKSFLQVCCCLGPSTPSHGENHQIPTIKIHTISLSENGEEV
Procedure: as §1, §2

[5] = biological target: T5, human α2A receptor (Homo sapiens, UniProt P08913); test: FLIPR Ca+2 influx assay, α2A
T5 construct: expressed in transfected cells; host or cells: HEK 293
T5 sequence (P08913 1-465): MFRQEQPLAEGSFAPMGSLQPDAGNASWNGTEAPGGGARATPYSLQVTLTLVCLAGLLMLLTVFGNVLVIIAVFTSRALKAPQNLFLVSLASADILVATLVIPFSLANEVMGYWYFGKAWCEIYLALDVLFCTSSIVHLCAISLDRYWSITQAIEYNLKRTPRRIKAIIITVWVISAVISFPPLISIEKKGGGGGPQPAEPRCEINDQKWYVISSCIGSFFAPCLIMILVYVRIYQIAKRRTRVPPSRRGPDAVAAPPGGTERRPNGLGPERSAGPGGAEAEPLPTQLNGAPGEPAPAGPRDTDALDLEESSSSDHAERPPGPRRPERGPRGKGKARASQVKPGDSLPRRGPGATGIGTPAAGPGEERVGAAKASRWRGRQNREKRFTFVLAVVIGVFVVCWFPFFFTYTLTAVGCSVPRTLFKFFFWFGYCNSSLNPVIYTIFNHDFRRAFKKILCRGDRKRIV
Procedure: as §1, §2

SMILES: CCN(Cc1ccncc1)C1CCc2cccc(O)c2C1 (centres unmarked)
- EC50 ([1]; HEK 293 cells stably expressing mouse α2B receptor and Gα16 protein): 0.185 µM
- Relative efficacy FLIPR α2B ([1]; relative efficacy compared to standard full agonist norepinephrine, HEK 293, mouse α2B/Gα16): 1.08
- EC50 ([2]; HEK 293 cells stably expressing human α2C receptor and chimeric G protein Gqi5): 6.7 µM
- Relative efficacy FLIPR α2C ([2]; relative efficacy compared to standard full agonist norepinephrine, HEK 293, human α2C/Gqi5): 0.17
- Relative efficacy FLIPR α1B [3]: ND (0.15)
- Relative efficacy FLIPR α1A [4]: ND (0.1)
- EC50 ([5]; HEK 293 cells stably expressing human α2A receptor and chimeric G protein Gqi5): 5.5 µM
- Relative efficacy FLIPR α2A ([5]; relative efficacy compared to standard full agonist norepinephrine, HEK 293, human α2A/Gqi5): 0.16
